Assay results: paper PMC12154458, “High-Throughput Screens of Repurposing Hub and DOS Chemical Libraries Reveal Compounds with Novel and Potent Inhibitory Activity Against the Essential Non-Neuronal Acetylcholinesterase of Schistosoma mansoni (SmTAChE)” (International Journal of Molecular Sciences, 2025); call rule not given here
Entries after “also recorded” stand apart in the source; their conditions may differ. Like-named read-outs stand apart in the source and are kept apart here.

Experiments:
[1] = target: T1, rSmTAChE (Schistosoma mansoni, UniProt A0A3Q0KMM5); assay: biochemical
[2] = target: T1, rSmTAChE; assay type: biochemical; details: for IC50: read-out: IC50 (µM) rSmTAChE
[3] = target: recombinant human acetylcholinesterase, rHsAChE (Homo sapiens, UniProt P22303); assay: biochemical
[4] = test system: newly transformed S. mansoni schistosomula; details: survival over 3 days; read-out: IC50 against schistosomula; cited from earlier work
[5] = test system: S. mansoni adult male and female worms; details: survival over 3 days; read-out: IC50 against adults; cited from earlier work
[6] = test system: S. mansoni worms in vivo; details: one time 200 mg/kg by oral gavage, four mice, 16–18 days post-drug administration; cited from earlier work
[7] = test system: human red blood cell AChE; details: cited from earlier work
[8] = read-out: rSmTAChE HTS Inhibition (Ave, %)
[9] = read-out: HTS/rSmTAChE Inhibition (Ave, %)
[10] = Table 3, read-out: IC50 (µM) rHsAChE
[11] = dose response analysis of Drug Repurposing Hub hits against rHsAChE
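For Inhibition (%) (Average) in this document: mostly 20 µM final but a few compounds at 5 or 10 µM.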
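For Inhibition (%) Replicate A in this document: mostly 20 µM final but a few compounds at 5 or 10 µM.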
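For Inhibition (%) Replicate B in this document: mostly 20 µM final but a few compounds at 5 or 10 µM.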

Chain of recombinant human acetylcholinesterase, rHsAChE (P22303 32-614): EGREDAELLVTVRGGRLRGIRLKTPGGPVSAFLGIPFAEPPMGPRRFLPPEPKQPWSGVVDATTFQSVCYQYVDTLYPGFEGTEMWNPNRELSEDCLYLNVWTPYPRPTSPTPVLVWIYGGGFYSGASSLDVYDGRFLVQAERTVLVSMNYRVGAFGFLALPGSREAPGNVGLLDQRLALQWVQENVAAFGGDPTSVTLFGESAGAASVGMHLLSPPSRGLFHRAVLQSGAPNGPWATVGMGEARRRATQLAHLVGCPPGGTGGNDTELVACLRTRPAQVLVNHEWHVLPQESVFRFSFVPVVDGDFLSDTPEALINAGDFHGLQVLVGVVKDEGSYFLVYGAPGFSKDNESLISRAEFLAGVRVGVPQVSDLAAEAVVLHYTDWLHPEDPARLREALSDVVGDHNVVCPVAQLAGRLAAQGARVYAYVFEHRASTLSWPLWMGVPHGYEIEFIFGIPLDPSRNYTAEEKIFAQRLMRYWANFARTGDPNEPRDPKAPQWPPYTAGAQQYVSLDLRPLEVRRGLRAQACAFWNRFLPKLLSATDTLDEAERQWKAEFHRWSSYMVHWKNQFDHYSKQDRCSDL
T1 sequence (A0A3Q0KMM5 27-661 limits assumed): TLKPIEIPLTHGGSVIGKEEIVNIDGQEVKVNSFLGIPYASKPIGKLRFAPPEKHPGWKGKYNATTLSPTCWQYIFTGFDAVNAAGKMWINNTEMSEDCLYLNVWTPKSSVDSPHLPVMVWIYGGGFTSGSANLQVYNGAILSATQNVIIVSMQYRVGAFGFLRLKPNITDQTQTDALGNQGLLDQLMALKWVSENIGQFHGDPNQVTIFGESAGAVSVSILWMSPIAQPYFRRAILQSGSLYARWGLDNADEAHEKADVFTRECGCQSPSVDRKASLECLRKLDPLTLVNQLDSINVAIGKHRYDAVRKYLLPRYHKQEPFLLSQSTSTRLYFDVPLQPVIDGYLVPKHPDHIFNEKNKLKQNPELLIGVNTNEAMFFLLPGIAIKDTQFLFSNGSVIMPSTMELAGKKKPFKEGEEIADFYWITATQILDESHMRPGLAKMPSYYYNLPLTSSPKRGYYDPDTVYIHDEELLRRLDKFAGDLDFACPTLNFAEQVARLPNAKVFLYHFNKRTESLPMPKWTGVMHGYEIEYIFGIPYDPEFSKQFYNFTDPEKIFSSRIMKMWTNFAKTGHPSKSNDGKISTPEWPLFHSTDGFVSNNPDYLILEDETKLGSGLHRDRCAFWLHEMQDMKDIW

With Nc1nc(NCC2CCC(CNS(=O)(=O)c3cccc4ccccc34)CC2)nc2ccccc12 (stereo not shown) [CGP-71683, reference compound] the “Inhibition (%) (Average)” value [1] was 61.37%, the “Inhibition (%) Replicate A” value [1] was 61.71% and the “Inhibition (%) Replicate B” value [1] was 61.03%. The “HTS/rSmTAChE Inhibition (Ave, %)” value ([1]; 5 µM) was 61.37%, the “Data Mode (curve class), rSmTAChE” value [2] was “decreasing” and the “SI (Hs/Sm)” value [2] was 8.82. For the same molecule, the “fold greater potency/selectivity for SmTAChE vs. HsAChE (Selectivity Index)” value [2] was “about 10 fold”, the IC50 [2] was 2.21 µM and the “Data Mode (curve class), rHsAChE” value [3] was “decreasing (weakly active)”. The IC50 ([3]; read-out: IC50 (µM) rHsAChE) was greater than 19.5 µM, the IC50 [4] was roughly 1 µM and the IC50 [5] was roughly 2 µM. The “worm burden compared to the controls” value [6] was “no differences in worm burden”.

For O=C(NC(=O)c1c(F)cccc1F)Nc1cc(Cl)c(OC(F)(F)C(F)C(F)(F)F)cc1Cl (stereo not shown) [Lufenuron, reference compound], the inhibition at 20 µM [1, 8] was 92.6%, the “Data Mode (curve class), rSmTAChE” value [2] was “decreasing (weakly active)” and the “Data Mode (curve class), rHsAChE” value [3] was “decreasing”. It also gave an IC50 ([3]; IC50 (µM) rHsAChE) of 12 µM and an IC50 ([3]; qAC50 (IC50), rHsAChE) of 12 µM.

For COc1ccc2cc(-c3cc(-c4cc(Cl)cc(Cl)c4)nn3[C@@H](C)c3ccc(C(=O)NCCC(=O)O)cc3)ccc2c1 [MK-0893, reference compound], the inhibition at 20 µM [1, 9] was 88.7%, the “Data Mode (curve class), rSmTAChE” value [2] was “decreasing” and the “IC50 (µM) rHsAChE” value ([3]; Table 1, Inactive = inactive at the maximum tested concentration (40 µM)) was “Inactive *”. The “inhibition of rHsAChE, result in words” value ([3]; dose–response, up to 40 µM) was “no inhibition detected”.

In the case of O=C(O)Cn1nnc(-c2cc(N3CCC(Oc4cc(F)ccc4Br)CC3)no2)n1 [MK-8245, reference compound], the inhibition at 20 µM [1, 8] is reported as 71.5%, the “Data Mode (curve class), rSmTAChE” value [2] is reported as “decreasing” and the “SI (Sm/Hs)” value [3] is reported as 4.71. For the same molecule, the IC50 [3, 10] was 7.93 µM and the “Data Mode (curve class), rHsAChE” value [3, 11] was “decreasing”.

In the case of C[C@H](Cc1ccc(O)c(O)c1)[C@@H](C)Cc1ccc(O)c(O)c1 [Masoprocol, reference compound], the inhibition at 20 µM [1, 9] is reported as 76.4%, the “Data Mode (curve class), rSmTAChE” value [2] is reported as “decreasing” and the “SI (Hs/Sm)” value [2] is reported as 2.32. For the same molecule, the “Data Mode (curve class), rHsAChE” value [3, 11] was “decreasing (weakly active)”.

In the case of COc1ccc(-c2ccc3ncc4c(c3c2)n(-c2ccc(N3CCNCC3)c(C(F)(F)F)c2)c(=O)n4C)cn1 [NVP-BGT226, reference compound], the inhibition at 10 µM [1, 8] is reported as 84.3%, the “Data Mode (curve class), rSmTAChE” value [2] is reported as “decreasing (weakly active)” and the “SI (Sm/Hs)” value [3] is reported as 2.81. For the same molecule, the IC50 [3, 10] was greater than 13.5 µM and the “Data Mode (curve class), rHsAChE” value [3, 11] was “decreasing (weakly active)”.

In the case of CN(C)C(=O)Oc1cccc([N+](C)(C)C)c1 [Neostigmine bromide, reference compound], the inhibition at 20 µM [1, 8] is reported as 88.1%, the “Data Mode (curve class), rSmTAChE” value [2] is reported as “decreasing” and the “Data Mode (curve class), rHsAChE” value [3] is reported as “decreasing”.

For CCCCCCCC/C=C\CCCCCCCC(=O)NCCc1ccc(O)c(O)c1 [OLDA, reference compound], the “Inhibition (%) Replicate A” value [1] was 93.41%, the “Inhibition (%) Replicate B” value [1] was 95.51% and the “rSmTAChE HTS Inhibition (Ave, %)” value ([1]; 20 µM) was 94.46%. For the same molecule, the “Data Mode (curve class), rSmTAChE” value [2] was “decreasing”, the IC50 [2] was 36.1 µM and the “Data Mode (curve class), rHsAChE” value [3] was “decreasing (weakly active)”. The “SI (Sm/Hs)” value [3] was 2.67 and the IC50 ([3]; read-out: IC50 (µM) rHsAChE) was greater than 13.5 µM.

With O=C(Nc1cccc2c(=O)cc(-c3nnn[nH]3)oc12)c1ccc(OCCCCc2ccccc2)cc1 [Pranlukast, reference compound] the inhibition at 20 µM [1, 8] was 66.3%, the “Data Mode (curve class), rSmTAChE” value [2] was “decreasing” and the “SI (Sm/Hs)” value [3] was 2.18. For the same molecule, the IC50 ([3]; IC50 (µM) rHsAChE) was 12.6 µM and the “Data Mode (curve class), rHsAChE” value [3, 11] was “decreasing”.

With Cc1cn2nc([C@@H]3CCCCN3C(=O)c3cc(Cl)ccc3NS(C)(=O)=O)cc2nc1N1CC[C@H](N)C1 [Presatovir, reference compound] the inhibition at 20 µM [1, 9] was 66.9%, the “Data Mode (curve class), rSmTAChE” value [2] was “decreasing” and the “Data Mode (curve class), rHsAChE” value [3, 11] was “decreasing (weakly active)”.

With COc1cc(NC(C)CCCN)c2ncccc2c1 (stereo not shown) [Primaquine phosphate, reference compound] the inhibition at 20 µM [1, 9] was 73.7%, the “Data Mode (curve class), rSmTAChE” value [2] was “decreasing” and the “SI (Hs/Sm)” value [2] was 2.21. For the same molecule, the “Data Mode (curve class), rHsAChE” value [3] was “decreasing (weakly active)”, the “IC33 human red blood cell AChE” value [7] was 38 µM and the “IC67 human red blood cell AChE” value [7] was 247 µM.

With CC(C)(Sc1cc(C(C)(C)C)c(O)c(C(C)(C)C)c1)Sc1cc(C(C)(C)C)c(O)c(C(C)(C)C)c1 [Probucol, reference compound] the inhibition at 20 µM [1, 8] was 93.7%, the “Data Mode (curve class), rSmTAChE” value [2] was “decreasing (weakly active)” and the “SI (Sm/Hs)” value [3] was 5.36. For the same molecule, the IC50 ([3]; IC50 (µM) rHsAChE) was 7.09 µM and the “Data Mode (curve class), rHsAChE” value [3, 11] was “decreasing”.

For CN(C)C(=O)Oc1ccc[n+](C)c1 [Pyridostigmine bromide, reference compound], the inhibition at 20 µM [1, 8] was 92.4%, the “Data Mode (curve class), rSmTAChE” value [2] was “decreasing” and the “Data Mode (curve class), rHsAChE” value [3] was “decreasing (super-active)”.

For CCCCC(CC)CCC(CC(C)C)OS(=O)(=O)O (stereo not shown) [Sodium-tetradecyl-sulfate, reference compound], the inhibition at 20 µM [1, 8] was 74.7%, the “Data Mode (curve class), rSmTAChE” value [2] was “decreasing” and the “SI (Sm/Hs)” value [3] was 2.01. The IC50 [3, 10] was 5.66 µM and the “Data Mode (curve class), rHsAChE” value [3, 11] was “decreasing”.

For Cc1cc(OCCCS(C)(=O)=O)cc(C)c1-c1cccc(COc2ccc3c(c2)OC[C@H]3CC(=O)O)c1 [TAK-875, reference compound], the inhibition at 20 µM [1, 9] was 65%, the “Data Mode (curve class), rSmTAChE” value [2] was “decreasing” and the “SI (Hs/Sm)” value [2] was 2.25. The “Data Mode (curve class), rHsAChE” value [3, 11] was “decreasing (weakly active)”.

In the case of Cc1cnc(Nc2ccc(N3CCN(C)CC3)cc2)nc1Nc1cccc(S(=O)(=O)NC(C)(C)C)c1 [TG-101209, reference compound], the “Inhibition (%) (Average)” value [1] is reported as 70.99%, the “Inhibition (%) Replicate A” value [1] is reported as 68.94% and the “Inhibition (%) Replicate B” value [1] is reported as 73.04%. The “HTS/rSmTAChE Inhibition (Ave, %)” value ([1]; 20 µM) was 71.00%, the “Data Mode (curve class), rSmTAChE” value [2] was “decreasing” and the “SI (Hs/Sm)” value [2] was 2.51. The IC50 [2] was 6.13 µM, the “Data Mode (curve class), rHsAChE” value [3] was “decreasing” and the IC50 ([3]; read-out: IC50 (µM) rHsAChE) was 15.4 µM. For the same molecule, the IC50 ([3]; read-out: qAC50 (IC50), rHsAChE) was 15.4 µM.

For CCCCCCCCCCCCCCCC[N+](C)(C)CCN(Cc1ccc(OC)cc1)c1ncccn1 [Thonzonium bromide, reference compound], the inhibition at 20 µM [1, 8] was 67%, the “Data Mode (curve class), rSmTAChE” value [2] was “decreasing” and the “SI (Sm/Hs)” value [3] was 2.92. The IC50 ([3]; IC50 (µM) rHsAChE) was 0.38 µM and the “Data Mode (curve class), rHsAChE” value [3, 11] was “decreasing”.

With Oc1cc(Cl)ccc1Oc1ccc(Cl)cc1Cl [Triclosan, reference compound] the inhibition at 20 µM [1, 9] was 68%, the “Data Mode (curve class), rSmTAChE” value [2] was “decreasing” and the “SI (Hs/Sm)” value [2] was 5.78. For the same molecule, the “Data Mode (curve class), rHsAChE” value [3] was “decreasing (weakly active)”.

In the case of CCN(c1ccccc1)c1cc(=NC)n(C)c(C)n1 [ZD-7288, 4-ethylphenylamino-1,2-dimethyl-6-methylaminopyrimidinium chloride, reference compound], the inhibition at 10 µM [1, 9] is reported as 75%, the “Data Mode (curve class), rSmTAChE” value [2] is reported as “decreasing” and the “SI (Hs/Sm)” value [2] is reported as 46.87. The “fold greater potency/selectivity for SmTAChE vs. HsAChE (Selectivity Index)” value [2] was roughly 50 fold, the IC50 ([3]; Table 1, Inactive = inactive at the maximum tested concentration (40 µM), read-out: IC50 (µM) rHsAChE) was greater than 19.5 µM and the “Data Mode (curve class), rHsAChE” value [3, 11] was “decreasing (weakly active)”. It also gave an IC50 ([3]; read-out: IC50 for rHsAChE) of roughly 20 µM.

For SR-33805 [reference compound], the “Inhibition (%) (Average)” value [1] was 74.26%, the “Inhibition (%) Replicate A” value [1] was 73.90% and the “Inhibition (%) Replicate B” value [1] was 74.62%. The “HTS/rSmTAChE Inhibition (Ave, %)” value ([1]; 5 µM) was 74.26%, the “Data Mode (curve class), rSmTAChE” value [2] was “decreasing” and the IC50 [2] was 6.82 µM. The “IC50 (µM) rHsAChE” value [3] was “Inactive” and the “inhibition of rHsAChE, result in words” value [3] was “no inhibition detected; also recorded: no activity detected”.
